Target: T1, PARP1 (Homo sapiens, UniProt P09874)
T1 construct: HeLa cells (wide-type with PARP1 gene) were purchased from ATCC; host or cells: HeLa (wild type)
Assay: In-Cell Western measurement of PARylation in PARP1 WT and knockout cells
Format: cell-based
Details: HeLa cells (wide-type with PARP1 gene); hydrogen peroxide-induced PARylation; compounds 30 min, then 10 mM hydrogen peroxide 15 min; read-out: HeLa_WT_IC50
In short: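 Wild-type and PARP1-knockout HEK-293T and HAP1 cells, plus HeLa, pretreated with compound 30 min, then stimulated with 10 mM hydrogen peroxide for 15 min. Methanol-fixed cells immunostained for PARylation and imaged by In-Cell Western with infrared secondary antibody; IC50 fitted from signal.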

T1 sequence (P09874 whole entry): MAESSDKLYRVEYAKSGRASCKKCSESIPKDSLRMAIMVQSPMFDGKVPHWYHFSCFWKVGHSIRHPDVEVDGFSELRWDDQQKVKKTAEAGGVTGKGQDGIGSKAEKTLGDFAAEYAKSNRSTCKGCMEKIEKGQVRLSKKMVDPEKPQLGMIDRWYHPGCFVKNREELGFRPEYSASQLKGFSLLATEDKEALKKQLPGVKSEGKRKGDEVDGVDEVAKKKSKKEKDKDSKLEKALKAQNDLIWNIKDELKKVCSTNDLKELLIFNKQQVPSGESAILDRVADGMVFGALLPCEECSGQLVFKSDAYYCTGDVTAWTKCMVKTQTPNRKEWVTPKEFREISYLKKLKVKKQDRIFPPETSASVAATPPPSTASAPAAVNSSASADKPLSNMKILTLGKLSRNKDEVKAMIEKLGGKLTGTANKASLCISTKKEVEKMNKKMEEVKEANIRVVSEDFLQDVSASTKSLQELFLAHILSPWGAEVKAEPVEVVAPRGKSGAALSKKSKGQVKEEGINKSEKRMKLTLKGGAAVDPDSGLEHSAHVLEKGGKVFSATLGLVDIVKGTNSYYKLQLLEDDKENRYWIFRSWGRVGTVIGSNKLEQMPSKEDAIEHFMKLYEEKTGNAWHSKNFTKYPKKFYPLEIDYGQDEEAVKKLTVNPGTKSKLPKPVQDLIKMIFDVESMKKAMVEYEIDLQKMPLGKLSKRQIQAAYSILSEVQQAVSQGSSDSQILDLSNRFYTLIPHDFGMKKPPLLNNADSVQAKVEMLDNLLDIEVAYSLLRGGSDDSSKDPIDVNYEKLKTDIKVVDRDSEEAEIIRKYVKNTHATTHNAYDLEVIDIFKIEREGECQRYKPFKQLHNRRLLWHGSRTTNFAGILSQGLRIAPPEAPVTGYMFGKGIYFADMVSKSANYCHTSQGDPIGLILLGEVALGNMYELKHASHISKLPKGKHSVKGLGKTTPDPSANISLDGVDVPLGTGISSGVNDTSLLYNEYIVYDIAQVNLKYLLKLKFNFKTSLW

Structure (SMILES)	IC50 [nM]
CCN1C(=O)Nc2c(F)c(CN3CCN(c4ccc(C(=O)NC5CC5)c(F)c4F)CC3)cc3ncnc1c23 [Compound I-90, N-cyclopropyl-4-(4-((3-ethyl-9-fluoro-2-oxo-2,3-dihydro-1H-pyrimido[4,5,6-de]quinazolin-8-yl)methyl)piperazin-1-yl)-2,3-difluorobenzamide]	≤ 10
CCN1C(=O)Nc2c(F)c(CN3CCN(c4ccc(C(=O)NC5(CC#N)CC5)cc4C)CC3)cc3ncnc1c23 [Compound I-93, N-(1-(cyanomethyl)cyclopropyl)-4-(4-((3-ethyl-9-fluoro-2-oxo-2,3-dihydro-1H-pyrimido[4,5,6-de]quinazolin-8-yl)methyl)piperazin-1-yl)-3-methylbenzamide]	≤ 10
CCN1C(=O)Nc2c(F)c(CN3CCN(c4ccc(C(=O)NC5(CC#N)CC5)cc4F)CC3)cc3ncnc1c23 [Compound I-94, N-(1-(cyanomethyl)cyclopropyl)-4-(4-((3-ethyl-9-fluoro-2-oxo-2,3-dihydro-1H-pyrimido[4,5,6-de]quinazolin-8-yl)methyl)piperazin-1-yl)-3-fluorobenzamide]	≤ 10
CCN1C(=O)Nc2c(F)c(CN3CCN(c4ccc(C(=O)NC5(CC#N)CC5)c(F)c4F)CC3)cc3ncnc1c23 [Compound I-95, N-(1-(cyanomethyl)cyclopropyl)-4-(4-((3-ethyl-9-fluoro-2-oxo-2,3-dihydro-1H-pyrimido[4,5,6-de]quinazolin-8-yl)methyl)piperazin-1-yl)-2,3-difluorobenzamide]	10 to 100
CCN1C(=O)Nc2c(F)c(CN3CCN(c4ccc(C(=O)NC5CCC5)nc4C)CC3)cc3ncnc1c23 [Compound I-96, N-cyclobutyl-5-(4-((3-ethyl-9-fluoro-2-oxo-2,3-dihydro-1H-pyrimido[4,5,6-de]quinazolin-8-yl)methyl)piperazin-1-yl)-6-methylpicolinamide]	≤ 10
